Biological target: Sigma non-opioid intracellular receptor 1 (Homo sapiens, UniProt Q99720)
Assay: Receptor Radioligand Assay: To investigate binding properties of test compounds to human σ1 receptor, transfected HEK-293 membranes and [3H](+)-pentazocine (Perkin Elmer, NET-1056), as the radioligand, were used. The assay was carried out with 7 μg of membrane suspension, 5 nM of [3H](+)-pentazocine in either absence or presence of either buffer or 10 μM Haloperidol for total and non-specific binding, respectively. Binding buffer contained Tris-HCl 50 mM at pH 8. Plates were incubated at 37° C. for 120 minutes. After the incubation period, the reaction mix was then transferred to MultiScreen HTS, FC plates (Millipore), filtered and plates were washed 3 times with ice-cold 10 mM Tris-HCL (pH7.4). Filters were dried and counted at approximately 40% efficiency in a MicroBeta scintillation counter (Perkin-Elmer) using EcoScint liquid scintillation cocktail

Chain of Sigma non-opioid intracellular receptor 1 (Q99720 whole entry): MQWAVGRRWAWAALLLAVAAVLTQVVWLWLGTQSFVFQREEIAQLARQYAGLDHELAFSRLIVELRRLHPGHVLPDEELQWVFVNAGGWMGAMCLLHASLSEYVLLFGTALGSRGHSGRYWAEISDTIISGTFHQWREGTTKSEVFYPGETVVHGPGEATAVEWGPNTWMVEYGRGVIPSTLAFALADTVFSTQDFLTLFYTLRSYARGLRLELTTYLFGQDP

Ki: < 500 nM
Structure (SMILES): CCN1CC(C2CCN(CCC(C)C)CC2)OC2(CC2)C1 (stereo unspecified)

Reference: ChEMBL document CHEMBL5727310, “Substituted morpholine derivatives having activity against pain” (2019)
